Experimental data taken from ChEMBL document CHEMBL2203009, “Synthesis of isoindole and benzoisoindole derivatives of teicoplanin pseudoaglycon with remarkable antibacterial and antiviral activities” (Bioorg Med Chem Lett, 2012).
Values after ≈ are worked out from the molar mass of the structure shown.

What was measured:
Enterococcus faecalis [1] = assay: Antimicrobial activity against Enterococcus faecalis ATCC 51299 over-expressing vanB; assay type: functional
[2] = Toxicity in MDCK cells assessed as induction of cell morphology changes; assay type: cell-based, Canis lupus familiaris; settings: dog
Enterococcus faecalis [3] = assay: Antimicrobial activity against Enterococcus faecalis 15376 over-expressing vanA; assay type: functional
Vaccinia virus = assay: Antiviral activity against Vaccinia virus infected in HEL cells assessed as inhibition of virus-induced cytopathic effect; assay type: functional, organism-based; settings: Orthopoxvirus vaccinia
Influenza B virus = assay: Antiviral activity against Influenza B virus (B/Hong Kong/05/1972) […] infected in MDCK cells assessed as inhibition of virus-induced cytopathic effect; assay type: functional, cell-based; settings: B/Hong Kong/05/1972, MDCK
Staphylococcus aureus [4] = assay: Antimicrobial activity against methicillin-sensitive Staphylococcus aureus ATCC 29213; assay type: functional
H3N2 subtype = assay: Antiviral activity against Influenza A virus (A/Hong Kong/7/1987(H3N2)) […] infected in MDCK cells assessed as inhibition of virus-induced cytopathic effect; assay type: functional, organism-based
Enterococcus faecalis [5] = assay: Antimicrobial activity against Enterococcus faecalis ATCC 29212; assay type: functional
[6] = system: Staphylococcus epidermidis; assay: Antimicrobial activity against Staphylococcus epidermidis over-expressing MecA; assay type: functional
[7] = system: Vesicular stomatitis virus; assay: Antiviral activity against Vesicular stomatitis virus infected in HEL cells assessed as inhibition of virus-induced cytopathic effect; assay type: functional, organism-based
[8] = Toxicity in HEL cells assessed as induction of cell morphology changes; assay type: cell-based; settings: human
Influenza A virus = assay: Antiviral activity against Influenza A virus (A/Puerto Rico/8/1934(H1N1)) H1N1 infected in MDCK cells assessed as inhibition of virus-induced cytopathic effect; assay type: functional, organism-based
Human alphaherpesvirus 1 [9] = assay: Antiviral activity against thymidine kinase deficient and acyclovir-resistant HSV1 KOS infected in HEL cells assessed as inhibition of virus-induced cytopathic effect; assay type: functional, organism-based; settings: Human alphaherpesvirus 1, KOS
Bacillus subtilis = assay: Antimicrobial activity against Bacillus subtilis ATCC 6633; assay type: functional
Staphylococcus aureus [10] = assay: Antimicrobial activity against methicillin-resistant Staphylococcus aureus ATCC 33591; assay type: functional
Human alphaherpesvirus 1 [11] = assay: Antiviral activity against HSV1 KOS infected in HEL cells assessed as inhibition of virus-induced cytopathic effect; assay type: functional, organism-based; settings: Human alphaherpesvirus 1, KOS
[12] = system: Staphylococcus epidermidis; assay: Antimicrobial activity against Staphylococcus epidermidis ATCC 35984 biofilms; assay type: functional
Human alphaherpesvirus 2 = assay: Antiviral activity against HSV2 G infected in HEL cells assessed as inhibition of virus-induced cytopathic effect; assay type: functional, organism-based; settings: Human alphaherpesvirus 2, strain G

Compound | MBC (Enterococcus faecalis [1]) [µg/mL] | MIC (Enterococcus faecalis [1]) [µg/mL] | MCC [2] [µM] | MBC (Enterococcus faecalis [3]) [µg/mL] | MIC (Enterococcus faecalis [3]) [µg/mL] | EC50 (Vaccinia virus) [µM] | EC50 (Influenza B virus) [µM] | MBC (Staphylococcus aureus [4]) [µg/mL] | MIC (Staphylococcus aureus [4]) [µg/mL] | EC50 (H3N2 subtype) [µM] | MBC (Enterococcus faecalis [5]) [µg/mL] | MIC (Enterococcus faecalis [5]) [µg/mL] | MBC [6] [µg/mL] | MIC [6] [µg/mL] | EC50 [7] [µM] | MCC [8] [µM] | EC50 (Influenza A virus) [µM] | EC50 (Human alphaherpesvirus 1 [9]) [µM] | MBC (Bacillus subtilis) [µg/mL] | MIC (Bacillus subtilis) [µg/mL] | further results
CC(=O)N[C@H]1[C@H](O[C@@H]2c3ccc(c(Cl)c3)Oc3cc4cc(c3O)Oc3ccc(cc3Cl)C[C@H]3NC(=O)[C@H](n5cc6ccccc6c5Sc5ccccc5)c5ccc(O)c(c5)Oc5cc(O)cc(c5)[C@H](NC3=O)C(=O)N[C@H]4C(=O)N[C@H]3C(=O)N[C@@H]2C(=O)N[C@H](C(=O)O)c2cc(O)cc(O)c2-c2cc3ccc2O)O[C@H](CO)[C@@H](O)[C@@H]1O | 256 (≈ 159 µM) | 2 (≈ 1.24 µM) | 4 | 32 (≈ 19.9 µM) | 2 (≈ 1.24 µM) | > 20 | > 100 | 128 (≈ 79.5 µM) | 0.125 (≈ 0.0776 µM) | > 100 | 256 (≈ 159 µM) | 0.0075 (≈ 0.00466 µM) | 32 (≈ 19.9 µM) | 2 (≈ 1.24 µM) | > 20 | ≥ 20 | > 100 | ≥ 20 | 1 (≈ 0.621 µM) | 1 (≈ 0.621 µM) | MBC (Staphylococcus aureus [10]): 2 µg/mL (≈ 1.24 µM); MIC (Staphylococcus aureus [10]): 0.0625 µg/mL (≈ 0.0388 µM); EC50 (Human alphaherpesvirus 1 [11]): 9 µM; MBC [12]: 0.5 µg/mL (≈ 0.31 µM); MIC [12]: 0.0165 µg/mL (≈ 0.0102 µM); EC50 (Human alphaherpesvirus 2): 9 µM
CC(=O)N[C@H]1[C@H](O[C@@H]2c3ccc(c(Cl)c3)Oc3cc4cc(c3O)Oc3ccc(cc3Cl)C[C@H]3NC(=O)[C@H](n5cc6ccccc6c5Sc5ncccn5)c5ccc(O)c(c5)Oc5cc(O)cc(c5)[C@H](NC3=O)C(=O)N[C@H]4C(=O)N[C@H]3C(=O)N[C@@H]2C(=O)N[C@H](C(=O)O)c2cc(O)cc(O)c2-c2cc3ccc2O)O[C@H](CO)[C@@H](O)[C@@H]1O | 256 (≈ 159 µM) | 1 (≈ 0.62 µM) | 20 | 256 (≈ 159 µM) | 0.0625 (≈ 0.0388 µM) | ≥ 58 | > 100 | 0.5 (≈ 0.31 µM) | 0.0313 (≈ 0.0194 µM) | > 100 | 256 (≈ 159 µM) | 0.0313 (≈ 0.0194 µM) | 64 (≈ 39.7 µM) | 4 (≈ 2.48 µM) | > 100 | > 100 | > 100 | 50 | 0.5 (≈ 0.31 µM) | 0.0625 (≈ 0.0388 µM) | MBC (Staphylococcus aureus [10]): 8 µg/mL (≈ 4.96 µM); MIC (Staphylococcus aureus [10]): 0.0313 µg/mL (≈ 0.0194 µM); EC50 (Human alphaherpesvirus 1 [11]): 47 µM; MBC [12]: 1 µg/mL (≈ 0.62 µM); MIC [12]: 0.0165 µg/mL (≈ 0.0102 µM); EC50 (Human alphaherpesvirus 2): 45 µM
CC(=O)N[C@H]1[C@H](O[C@@H]2c3ccc(c(Cl)c3)Oc3cc4cc(c3O)Oc3ccc(cc3Cl)C[C@H]3NC(=O)[C@H](n5cc6ccccc6c5Sc5nc6ccccc6s5)c5ccc(O)c(c5)Oc5cc(O)cc(c5)[C@H](NC3=O)C(=O)N[C@H]4C(=O)N[C@H]3C(=O)N[C@@H]2C(=O)N[C@H](C(=O)O)c2cc(O)cc(O)c2-c2cc3ccc2O)O[C@H](CO)[C@@H](O)[C@@H]1O | 256 (≈ 154 µM) | 0.0625 (≈ 0.0375 µM) | 4 | 256 (≈ 154 µM) | 0.0313 (≈ 0.0188 µM) | 47 | > 100 | 0.5 (≈ 0.3 µM) | 0.0075 (≈ 0.0045 µM) | > 100 | 256 (≈ 154 µM) | 2 (≈ 1.2 µM) | 256 (≈ 154 µM) | 4 (≈ 2.4 µM) | > 100 | ≥ 100 | > 100 | 45 | 2 (≈ 1.2 µM) | 1 (≈ 0.6 µM) | MBC (Staphylococcus aureus [10]): 0.5 µg/mL (≈ 0.3 µM); MIC (Staphylococcus aureus [10]): 0.0075 µg/mL (≈ 0.0045 µM); EC50 (Human alphaherpesvirus 1 [11]): 45 µM; MBC [12]: 0.5 µg/mL (≈ 0.3 µM); MIC [12]: 0.0075 µg/mL (≈ 0.0045 µM); EC50 (Human alphaherpesvirus 2): 45 µM
CC(=O)N[C@H]1[C@H](O[C@@H]2c3ccc(c(Cl)c3)Oc3cc4cc(c3O)Oc3ccc(cc3Cl)C[C@H]3NC(=O)[C@H](n5cc6cc7ccccc7cc6c5Sc5ccccc5)c5ccc(O)c(c5)Oc5cc(O)cc(c5)[C@H](NC3=O)C(=O)N[C@H]4C(=O)N[C@H]3C(=O)N[C@@H]2C(=O)N[C@H](C(=O)O)c2cc(O)cc(O)c2-c2cc3ccc2O)O[C@H](CO)[C@@H](O)[C@@H]1O | 256 (≈ 154 µM) | 2 (≈ 1.2 µM) | < 0.8 | 32 (≈ 19.3 µM) | 0.125 (≈ 0.0753 µM) | > 20 | > 100 | 1 (≈ 0.602 µM) | 0.0313 (≈ 0.0189 µM) | > 100 | 256 (≈ 154 µM) | 1 (≈ 0.602 µM) | 256 (≈ 154 µM) | 0.0313 (≈ 0.0189 µM) | > 20 | 100 | > 100 | > 20 | 4 (≈ 2.41 µM) | 2 (≈ 1.2 µM) | MBC (Staphylococcus aureus [10]): 0.5 µg/mL (≈ 0.301 µM); MIC (Staphylococcus aureus [10]): 0.25 µg/mL (≈ 0.151 µM); EC50 (Human alphaherpesvirus 1 [11]): > 20 µM; MBC [12]: 0.5 µg/mL (≈ 0.301 µM); MIC [12]: 0.0313 µg/mL (≈ 0.0189 µM); EC50 (Human alphaherpesvirus 2): > 20 µM
CC(=O)N[C@H]1[C@H](O[C@@H]2c3ccc(c(Cl)c3)Oc3cc4cc(c3O)Oc3ccc(cc3Cl)C[C@H]3NC(=O)[C@H](n5cc6cc7ccccc7cc6c5Sc5ncccn5)c5ccc(O)c(c5)Oc5cc(O)cc(c5)[C@H](NC3=O)C(=O)N[C@H]4C(=O)N[C@H]3C(=O)N[C@@H]2C(=O)N[C@H](C(=O)O)c2cc(O)cc(O)c2-c2cc3ccc2O)O[C@H](CO)[C@@H](O)[C@@H]1O | 256 (≈ 154 µM) | 1 (≈ 0.602 µM) | 13 | 256 (≈ 154 µM) | 0.5 (≈ 0.301 µM) | 10 | > 50 | 0.5 (≈ 0.301 µM) | 0.015 (≈ 0.00902 µM) | 0.54 | 256 (≈ 154 µM) | 0.015 (≈ 0.00902 µM) | 256 (≈ 154 µM) | 0.015 (≈ 0.00902 µM) | > 100 | ≥ 100 | 0.54 | 45 | 2 (≈ 1.2 µM) | 0.0313 (≈ 0.0188 µM) | MBC (Staphylococcus aureus [10]): 0.5 µg/mL (≈ 0.301 µM); MIC (Staphylococcus aureus [10]): 0.015 µg/mL (≈ 0.00902 µM); EC50 (Human alphaherpesvirus 1 [11]): 40 µM; MBC [12]: 0.5 µg/mL (≈ 0.301 µM); MIC [12]: 0.015 µg/mL (≈ 0.00902 µM); EC50 (Human alphaherpesvirus 2): 27 µM
